# Assays:
# [1] = tested on: adipocytes; assay: Expression of phospho HSL / HSL in adipocytes incubated 3 h with ZAG or isoprenaline; assay type: cell-based, mice
# [2] = tested on: murine myotubes; assay: Protein degradation and synthesis in myotubes subjected to high glucose; assay type: cell-based
# Experimental: FIGS. 18A and 18B is a graphical diagram showing phenylalanine release (FIG. 18A) and protein synthesis (FIG. 18B) in C2Cl2 myotubes treated with and without ZAG for 4 h in the presence of various concentrations of glucose. Statistically significant c, P<0.001 from control; f, P<0.001 from glucose alone.
# Statistically significant b, P<0.01 and c, P<0.001 from control; e, P<0.05 and f, P<0.001 from glucose alone.
# Statistically significant b, P<0.01 and c, P<0.001 from control; e, P<0.05 and f, P<:0.001 from glucose alone; I, P<0.001 from glucose+SR.
# This utilizes murine myotubes subjected. to high concentrations of glucose (10 or 25 mM).
# [3] = tested on: epididymal adipocytes; assay: Lipolytic assay (glycerol release) in isolated mouse adipocytes; assay type: cell-based, mice; details: any adipocyte group
# Experimental: Cell Culture and Purification of ZAG—Single-cell suspensions of white adipocytes were prepared from minced adipose deposits by incubation at 37° C. for […] in Krebs-Ringer biocarbonate buffer containing 1.5 ingml^−1 collagenase, and 4% bovine serum albumin under an atmosphere of 95% oxygen:5% CO2 as previously described. For time-course studies adipocytes were suspended in DMEM containing 10% fetal calf serum at a concentration of 10^5 cells ml^−1 and maintained under an atmosphere of 10% CO2 in air at 37° C. Human 293 cells transfected with a plasmid containing human ZAG were seeded at a concentration of 10^5 cells ml^−1 in FreeStyle medium and maintained under an atmosphere of 5% CO2 in air at 37° C. Maximal protein levels (16 μgml^−1) were obtained after 14 days of culture. […]
# Lipolytic Assay—Samples to be assayed were incubated with 10^5 to 2×10^5 adipocytes for 2 h in 1 ml Krebs-Ringer bicarbonate buffer, pH 7.2. The concentration of glycerol released was determined enzymatically by the method of Wieland (Wieland, O. Glycerol UV method. In Methods of Enzymatic Analysis (ed. Bergmeyer, H. U.) (Academic Press, London, UK, pp 1404-1409, 1974)). Control samples containing adipocytes alone were analysed to determine the spontaneous glycerol release. Activity was expressed as nmol glycerol released/10^5 adipocytes/2 h.
smiles,measurement,setting,value
COc1cccc(-c2cc(=O)c3ccccc3o2)c1N [PD98059],effect on ZAG-induced expression of HSL in ep adipocytes,"[1]; PD98059 10 μM, adipocytes incubated with ZAG for 3 h",attenuated the increase in expression of HSL
CCc1ccccc1OC[C@@H](O)CN[C@H]1CCCc2ccccc21 [SR59230A],combination of ZAG and SR59230A on glucose induced protein degradation,[2]; 10 and 25 mM glucose,additive rather than antagonistic
same,protein degradation induced by 10 and 25 mM glucose,[2]; myotubes,attenuated
same,protein synthesis,[2]; with 10 mM glucose,causes an increase in the depression of protein synthesis
CC(C)NCC(O)c1ccc(O)c(O)c1 (stereo not drawn) [isoprenaline],expression of phospho HSL in adipocytes,"[1]; 3 h, isoprenaline 10 μM or ZAG 0.46 μM",not
same,"extent of stimulation of lipolysis, isoprenaline versus ZAG",[3],no significant difference
